Test results reported in patent publication US8389472B2, “Exendin-4 to treat nonalcoholic steatohepatitis and nonalcoholic fatty liver disease” (Amylin Pharmaceuticals, LLC, priority 2005, dated 2013).
No end group written: not given here.

Assays:
[1] = in treated test animals; cited from earlier work
[2] = compared to human amylin; cited from earlier work
cloned GLP-1 receptor = details: cells transfected with the cloned GLP-1 receptor; cited from earlier work
T2DM patients = details: head-to-head comparator trial; cited from earlier work
[3] = adsorption onto glass container in liquid form; type: physicochemical
Source text: However, with regard to compounds Which do have such a tendency when in liquid final, a surfactant should be used in their formulation. These formulations may then be lyophilized. Surfactants frequently cause denaturation of protein, both of hydrophobic disruption and by salt bridge separation. Relatively low concentrations of surfactant may exert a potent denaturing activity, because of the strong interactions between surfactant moieties and the reactive sites on proteins. However, judicious use of this interaction can stabilize proteins against interfacial or surface denaturation. Surfactants which could further stabilize the peptide may optionally be present in the range of about 0.001 to 0.3% (w/v) of the total formulation and include polysorbate 80 (i.e., polyoxyethylene(20) sorbitan monooleate), CHAPS® (i.e., 3-[(3-Cholamidopropyl)dimethylammonio]propanesulfonic acid), BRIJ® (e.g., Brij 35, which is (polyoxyethylene(23) lauryl ether), poloxamer, or another non-ionic surfactant.

^18Arg^25,28Pro-h-amylin (KCNTATCATQRLANFLVRSSNNFGPILPSTNVGSNTY) [amylin agonist analog]
amylin activity [1]: amylin activity in vivo | solubility and stability characteristics [2]: more desirable solubility and stability characteristics

exendin[9-39]
functional activity (cAMP) (cloned GLP-1 receptor): antagonist

des-^1Lys^18Arg^25,28Pro-h-amylin
amylin activity [1]: amylin activity in vivo

^28Pro-h-amylin (KCNTATCATQRLANFLVHSSNNFGAILPSTNVGSNTY) [amylin agonist analog]
amylin activity [1]: amylin activity in vivo

^25Pro^26Val^28,29Pro-h-amylin (KCNTATCATQRLANFLVHSSNNFGPVLPPTNVGSNTY) [amylin agonist analog]
solubility and stability characteristics [2]: more desirable solubility and stability characteristics

insulin glargine
HbA1c reductions (T2DM patients): ~1.1% | weight gain (T2DM patients): ~1.8 kg

des-^1Lys-h-amylin (CNTATCATQRLANFLVHSSNNFGAILSSTNVGSNTY; ends and bridges not checked; cysteine pairing not given here; UniProt P10997 34-70, looked up, variant K1*) [amylin agonist analog]
amylin activity [1]: amylin activity in vivo

CC[C@H](C)[C@H](NC(=O)[C@@H]1CCCN1C(=O)CNC(=O)[C@H](Cc1ccccc1)NC(=O)[C@H](CC(N)=O)NC(=O)[C@H](CC(N)=O)NC(=O)[C@H](CO)NC(=O)[C@H](CO)NC(=O)[C@H](Cc1c[nH]cn1)NC(=O)[C@@H](NC(=O)[C@H](CC(C)C)NC(=O)[C@H](Cc1ccccc1)NC(=O)[C@H](CC(N)=O)NC(=O)[C@H](C)NC(=O)[C@H](CC(C)C)NC(=O)[C@H](CCCNC(=N)N)NC(=O)[C@H](CCC(N)=O)NC(=O)[C@@H](NC(=O)[C@H](C)NC(=O)[C@@H]1CSSC[C@H](NC(=O)[C@@H](N)CCCCN)C(=O)N[C@@H](CC(N)=O)C(=O)N[C@@H]([C@@H](C)O)C(=O)N[C@@H](C)C(=O)N[C@@H]([C@@H](C)O)C(=O)N1)[C@@H](C)O)C(C)C)C(=O)N[C@@H](CC(C)C)C(=O)N1CCC[C@H]1C(=O)N1CCC[C@H]1C(=O)N[C@H](C(=O)N[C@@H](CC(N)=O)C(=O)N[C@H](C(=O)NCC(=O)N[C@@H](CO)C(=O)N[C@@H](CC(N)=O)C(=O)N[C@H](C(=O)N[C@@H](Cc1ccc(O)cc1)C(N)=O)[C@@H](C)O)C(C)C)[C@@H](C)O [^25,28,29Pro-h-amylin, reference compound]
amylin activity [1]: amylin activity in vivo | tendency to adsorb onto the glass [3]: does not have a tendency to adsorb onto the glass
